Molecules are shown by their SMILES. Values joined by “and” are separate entries in the source; they are usually repeats but may differ in a detail not shown here. Identical values can stand only once. “Also recorded” adds a separate entry of the source.

The subject of one assay is L26F AM2. The class given is cell-based, influenza A virus. Conditions: pH 5.5.
The test system of a further assay is S31N AM2. The class given is cell-based, influenza A virus. Conditions: pH 5.5.

Consider `NC12CC3CC(CC(C3)C1)C2` [amantadine], for which the “inhibition of the inward current” value is 47% and 46.8 ± 0.7% in the assay on L26F AM2; 30% and 30.7 ± 1.8% with S31N AM2. Besides, the “reversibility of inhibition after removal of the drug” value in the assay with L26F AM2 is reported as “reversibly inhibited; also recorded: readily reversible”; in the assay on S31N AM2, “immediately reversed; also recorded: highly reversible”.

These data come from publication PMC2594009 (Structure (London, England : 1993), 2008).
